Like-named read-outs stand apart in the source and are kept apart here.
Columns and labels:
[1] = molecular target: T1, human norepinephrine transporter (Homo sapiens, UniProt P23975); test: hNET Receptor Binding ([125I]-RTI-55 displacement, HEK-293 membranes)
T1 construct: expressed in transfected cells; host or cells: HEK-293
Description: (§1) Cell pastes of HEK-293 cells transfected with a human norepinephrine transporter cDNA were prepared. The cell pastes were resuspended in 400 to 700 mL of Krebs-HEPES assay buffer (25 mM HEPES, 122 mM NaCl, 3 mM KCl, 1.2 mM MgSO4, 1.3 mM CaCl2, and 11 mM glucose, pH 7.4) with a Polytron homogenizer at setting 7 for 30 seconds. Aliquots of membranes (5 mg/mL protein) were stored in liquid nitrogen until used.
The binding assay was set up in Beckman deep-well polypropylene plates with a total volume of 250 μL containing: compound of one of the Examples (10^−5M to 10^−12M), cell membranes, and 50 pM [^125I]-RTI-55 (Perkin Elmer, NEX-272; specific activity 2200 Ci/mmol). The reaction was incubated by gentle agitation for 90 minutes at room temperature and was terminated by filtration through Whatman GF/C filter plates using a Brandel 96-well plate harvester. Scintillation fluid (100 μL) was added to each well, and bound [^125I]-RTI-55 was determined using a Wallac Trilux Beta Plate Counter. Test compounds were run in duplicate, and specific binding was defined as the difference between binding in the presence and absence of 10 μM desipramine.
(§2) Excel and GraphPad Prism software were used for data calculation and analysis. IC50 values were converted to Ki values using the Cheng-Prusoff equation.

[2] = molecular target: T2, human serotonin transporter (Homo sapiens, UniProt P31645); test: hSERT Receptor Binding ([125I]-RTI-55 displacement, HEK-293 membranes)
T2 construct: expressed in transfected cells; host or cells: HEK-293
Description: as §1, with “serotonin” for “norepinephrine”, “Setting” for “setting”, “(about 2.5” for “(5”
Assays were set up in FlashPlates pre-coated with 0.1 % PEI in a total volume of 250 μL containing: compound of one of the Examples (10^−5M to 10^−12M), cell membanes, and 50 pM [^125l]-RTI-55 (Perkin Elmer, NEX-272; specific activity 2200 Ci/mmol). The reaction was incubated and gently agitated for 90 minutes at room temperature, and terminated by removal of assay volume. Plates were covered, and bound [^125I]-RTI-55 was determined using a Wallac Trilux Beta Plate Counter. Test compounds were run in duplicate, and specific binding was defined as the difference between binding in the presence and absence of 10 μM citalopram.
as §2

[3] = hNET, HEK-293 cell membranes, 50 pM [125I]-RTI-55, Ki from IC50 by Cheng-Prusoff, read-out: NET Ki
[4] = hSERT, HEK-293 cell membranes, 50 pM [125I]-RTI-55, Ki from IC50 by Cheng-Prusoff, read-out: SERT Ki

T1 sequence (P23975 whole entry): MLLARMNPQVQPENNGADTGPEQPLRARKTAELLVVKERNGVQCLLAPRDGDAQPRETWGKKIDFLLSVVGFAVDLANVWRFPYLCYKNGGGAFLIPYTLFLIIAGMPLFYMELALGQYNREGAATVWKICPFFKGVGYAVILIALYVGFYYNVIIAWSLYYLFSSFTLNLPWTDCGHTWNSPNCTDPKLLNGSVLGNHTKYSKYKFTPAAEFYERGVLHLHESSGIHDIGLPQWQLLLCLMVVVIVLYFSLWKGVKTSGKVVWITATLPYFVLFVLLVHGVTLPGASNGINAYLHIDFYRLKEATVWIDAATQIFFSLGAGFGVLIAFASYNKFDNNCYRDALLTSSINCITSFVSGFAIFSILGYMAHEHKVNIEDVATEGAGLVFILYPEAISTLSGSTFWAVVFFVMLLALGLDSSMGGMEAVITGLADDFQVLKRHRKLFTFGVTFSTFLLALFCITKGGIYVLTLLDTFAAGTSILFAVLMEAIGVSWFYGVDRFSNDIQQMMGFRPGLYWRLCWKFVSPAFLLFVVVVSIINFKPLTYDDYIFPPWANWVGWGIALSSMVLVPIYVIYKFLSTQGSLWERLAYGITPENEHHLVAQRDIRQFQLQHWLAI
T2 sequence (P31645 whole entry): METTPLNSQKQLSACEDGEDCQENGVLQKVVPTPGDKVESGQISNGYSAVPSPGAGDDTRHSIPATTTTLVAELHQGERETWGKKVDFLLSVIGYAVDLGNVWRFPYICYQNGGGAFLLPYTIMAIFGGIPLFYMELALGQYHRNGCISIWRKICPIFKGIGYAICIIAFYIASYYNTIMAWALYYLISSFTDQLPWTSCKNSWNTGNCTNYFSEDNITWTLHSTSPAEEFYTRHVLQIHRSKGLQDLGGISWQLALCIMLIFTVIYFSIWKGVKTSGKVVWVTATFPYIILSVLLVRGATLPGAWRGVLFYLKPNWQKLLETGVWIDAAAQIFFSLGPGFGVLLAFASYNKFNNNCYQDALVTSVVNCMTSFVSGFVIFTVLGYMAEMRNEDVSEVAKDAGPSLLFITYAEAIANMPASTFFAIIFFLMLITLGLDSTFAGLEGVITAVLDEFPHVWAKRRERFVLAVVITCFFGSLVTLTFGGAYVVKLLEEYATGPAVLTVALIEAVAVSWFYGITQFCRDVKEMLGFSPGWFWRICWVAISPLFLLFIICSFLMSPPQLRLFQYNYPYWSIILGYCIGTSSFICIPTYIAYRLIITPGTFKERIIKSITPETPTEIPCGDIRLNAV

Question: With CCOc1ncccc1OC[C@@H]1CNCC[C@H]1c1ccc(F)cc1 (racemic) [Example 58, (±)-trans-2-Ethoxy-3-[4-(4-fluoro-phenyl)-piperidin-3-ylmethoxy]-pyridine] as the compound, how does the Ki [1] read?
Answer: The Ki was 6.25 nM.

Question: And the Ki [2]?
Answer: The Ki was 5.97 nM.

Question: Which Ki [1, 3] does the source give for CCOc1ncccc1OC[C@@H]1CNCC[C@H]1c1cccc(F)c1 (racemic) [Example 59, (±)-trans-2-Ethoxy-3-[4-(3-fluoro-phenyl)-piperidin-3-ylmethoxy]-pyridine] here?
Answer: Its Ki is 4.38 nM.

Question: And the Ki [2, 4]?
Answer: The Ki was 10.7 nM.

Question: How did the Ki [1, 3] turn out when CCCCc1ncccc1OC[C@@H]1CNCC[C@H]1c1ccccc1 (racemic) [Example 61, (±)-trans-2-Butyl-3-(4-phenyl-piperidin-3-ylmethoxy)-pyridine] was run?
Answer: Its Ki is 7.48 nM.

Question: And the Ki [2, 4]?
Answer: The Ki was 23.8 nM.

Question: What does the source list for CC(C)Cc1ncccc1OC[C@@H]1CNCC[C@H]1c1ccccc1 (racemic) [Example 62, (±)-trans-2-lsobutyl-3-(4-phenyl-piperidin-3-ylmethoxy)-pyridine]?
Answer: Ki [1, 3]: 46.6 nM; Ki [2, 4]: 59.2 nM

Question: With c1ccc(-c2ccccc2OC[C@@H]2CNCC[C@H]2c2ccccc2)cc1 (relative stereo) [Example 47, trans-3-(Biphenyl-2-yloxymethyl)-4-phenyl-piperidine] as the compound, how does the Ki [1, 3] read?
Answer: The Ki was 51.5 nM.

Question: What about the Ki [2, 4] of the same compound?
Answer: The Ki was 1050 nM.

Question: With CCOc1ccccc1OC[C@@H]1CNCC[C@H]1c1ccccc1 (relative stereo) [Example 48, trans-3-(2-Ethoxy-phenoxymethyl)-4-phenyl-piperidine] as the compound, how does the Ki [1, 3] read?
Answer: Its Ki is 2.1 nM.

Question: With CC(C)c1ccccc1OC[C@@H]1CNCC[C@H]1c1ccccc1 (relative stereo) [Example 49, trans-3-(2-lsopropyl-phenoxymethyl)-4-phenyl-piperidine] as the compound, how does the Ki [1, 3] read?
Answer: Its Ki is 19.5 nM.

Question: What about the Ki [2, 4] of the same compound?
Answer: Its Ki is 83.5 nM.

Question: CCCc1ccccc1OC[C@@H]1CNCC[C@H]1c1ccccc1 (relative stereo) [Example 50, trans-4-Phenyl-3-(2-propyl-phenoxymethyl)-piperidine] was tested. Which Ki [1, 3] did it give?
Answer: The Ki was 16 nM.

Question: And the Ki [2, 4]?
Answer: Its Ki is 33 nM.

Question: Which results are given for c1ccc([C@@H]2CCNC[C@H]2COc2ccccc2C2CCCCC2)cc1 (relative stereo) [Example 51, trans-3-(2-Cyclohexyl-phenoxymethyl)-4-phenyl-piperidine]?
Answer: Ki [1, 3]: 75 nM; Ki [2, 4]: 174 nM

Question: CCOc1ccccc1OC[C@@H]1CNCC[C@@H]1c1ccccc1 (relative stereo) [Example 52, cis-3-(2-Ethoxy-phenoxymethyl)-4-phenyl-piperidine] was tested. Which Ki [1, 3] did it give?
Answer: The Ki was 35 nM.

Question: What about the Ki [2, 4] of the same compound?
Answer: The Ki was 96 nM.

Question: What does the source list for CCCc1ccccc1OC[C@@H]1CNCC[C@@H]1c1ccccc1 (relative stereo) [Example 53, cis-4-Phenyl-3-(2-propyl-phenoxymethyl)-piperidine]?
Answer: Ki [1, 3]: 138 nM; Ki [2, 4]: 267 nM

Question: How did the Ki [1, 3] turn out when CC(C)c1ccccc1OC[C@@H]1CNCC[C@@H]1c1ccccc1 (relative stereo) [Example 54, cis-3-(2-lsopropyl-phenoxymethyl)-4-phenyl-piperidine] was run?
Answer: Its Ki is 36.5 nM.

Question: And the Ki [2, 4]?
Answer: Its Ki is 208 nM.

Question: For c1ccc(-c2ccccc2OC[C@@H]2CNCC[C@@H]2c2ccccc2)cc1 (relative stereo) [Example 55, cis-3-(Biphenyl-2-yloxymethyl)-4-phenyl-piperidine], which Ki [1, 3] is on record?
Answer: The Ki was 215 nM.

Question: And the Ki [2, 4]?
Answer: Its Ki is 1050 nM.

Question: Which results are given for c1ccc([C@H]2CCNC[C@H]2COc2ccccc2C2CCCCC2)cc1 (relative stereo) [Example 56, cis-3-(2-Cyclohexyl-phenoxymethyl)-4-phenyl-piperidine]?
Answer: Ki [1, 3]: 317 nM; Ki [2, 4]: 542 nM

Question: For CCOc1ncccc1OC[C@@H]1CNCC[C@@H]1c1ccc(F)cc1 (single isomer, unassigned) [Example 57, (+)-cis-2-Ethoxy-3-[4-(4-fluoro-phenyl)-piperidin-3-ylmethoxy]-pyridine], which Ki [1] is on record?
Answer: Its Ki is 193 nM.

Question: What about the Ki [2] of the same compound?
Answer: The Ki was 34.8 nM.

Question: For CCOc1ccccc1OC[C@H]1CNCC[C@@H]1c1ccccc1 [Example 3, (3R,4S)-3-(2-Ethoxy-phenoxymethyl)-4-phenyl-piperidine], which Ki [1, 3] is on record?
Answer: The Ki was 1260 nM.

Question: And the Ki [2, 4]?
Answer: Its Ki is 18.8 nM.

Question: How did the Ki [1, 3] turn out when CCOc1ccccc1OC[C@@H]1CNCC[C@H]1c1ccccc1 [Example 18, (3S,4R)-3-(2-Ethoxy-phenoxymethyl)-4-phenyl-piperidine] was run?
Answer: The Ki was 1.75 nM.

Source: US20070142389A1, “PIPERIDINE DERIVATIVES” (PFIZER INC., priority 2005, published 2007)
